Assay results: patent publication EP4467141A1, “PYRAZOLO-QUINOLINES AS SELECTIVE INHIBITORS OF GENOTOXIC STRESS-INDUCED IKK/NF- KB PATHWAYS FOR CANCER THERAPY” (Max-Delbrück-Centrum für Molekulare Medizin in der …, priority 2023, dated 2024)

How the values were obtained:
Type in all cases: cell-based
[1] = test system: NF-κB subunit p65 phosphorylation (S536); test: Western blot of p65 phosphorylation (S536) after DNA damage (irradiation or etoposide) in U2-OS cells; conditions: 1-hour pre-treatment, irradiation (IR, 20 Gy), 90 min
Procedure: (§1) Fig.1: Identification of inhibitors specific for DNA damage-induced NF-κB activity. (A) Flowchart representing the high-throughput chemical library screening. A screen/counter-screen strategy was used by stimulating NF-κB in U2-OS cells with etoposide (50 µM for 90 min) and hits were counter-screened with TNFα (10 ng/ml for 20 min). Cells were pre-treated with compounds (10 µM) for 1 hour before stimulation, fixed, and percent p65 nuclear translocation measured by fluorescence microscopy. IC50 values were used for final selection. (B) Comparison of mean p65 nuclear translocation following either etoposide or TNFa stimulation after treatment with each counter-screened hit compound. Values were normalized to etoposide or TNFα positive controls. Specific inhibitors (red) of DNA damage-induced NF-κB signaling were defined by setting cut-off criteria (black line). […] (C) IC50 determination for MW01 (left) and MW05 (right) of p65 nuclear translocation, following either etoposide or TNFα treatment. […] IC50 noted with a dotted line. (D) Structures of compounds selected as leads for further analysis, MW01 (5-Hydroxy-10,11-dimethoxy-9H-benzo[c]indolo[3,2,1-ij][1,5]naphthyridin-9-one) and MW05 (3-Amino-7-methoxypyrazolo[3,4-b]quinolin-1-yl)-[3-(dimethylamino)phenyl]methanone). (E) Western blot analysis (top) and quantification (bottom) of NF-κB subunit p65 phosphorylation (S536) following 1-hour pre-treatment with DMSO, MW01 (10 µM), or MW05 (10 µM), in unstimulated, after 90 min irradiation (IR, 20 Gy), or after 20 min TNFα (10 ng/mL) conditions in U2- OS cells. B-actin was used as loading control after. The p-p65 signal was first normalized to β-actin loading control per sample, then each value to DMSO-treated unstimulated to evaluate relative activation of NF-κB. Ns: not significant; ***: p<0.001.
NF-κB was stimulated by DNA damage through either 20 Gy irradiation (IR) and analyzed after 90 minutes or by 10 ng/ml TNFα and analyzed after 20 minutes unless otherwise noted.
All compounds were pre-treated for 1-hour prior to NF-κB stimulation unless otherwise noted.
(§2) Cells were collected by scraping and lysed in Baeuerle lysis buffer supplemented with Protease (Thermo Fisher Scientific, 78429) and Phosphatase (Thermo Fisher Scientific, 78420) inhibitors after the appropriate treatment and time point. Proteins were quantified by Bradford assay (Bio-Rad, 5000006) and 20-50 µg of extracted proteins were loaded on 4-20% Protein Gel (Bio-Rad, 4568096) and then transferred onto a PVDF membrane (Bio-Rad, 1620177) using Tris-Glycine buffer with 20% of methanol. Blocking was performed for 1h with 5% not-fat dry milk in PBS 1X. Immunodetection was obtained using primary and secondary antibodies reported in Key Resources Table. The membranes were analyzed by ECL (Thermo Fisher Scientific, 34580) and detected by ChemiDoc XRS+ (Bio-Rad) using ImageLab software (Bio-Rad).

[2] = test system: NF-κB subunit p65 phosphorylation (S536); test: Western blot of p65 phosphorylation (S536) after TNFα in U2-OS cells; conditions: 1-hour pre-treatment, TNFα 10 ng/ml, 20 min
Procedure: as §1, with “(D) Structures of compounds selected as leads for further analysis, MW01 (5-Hydroxy-10,11-dimethoxy-9H-benzo[c]indolo[3,2,1-ij][1,5]naphthyridin-9-one) and MW05 (3-Amino-7-methoxypyrazolo[3,4-b]quinolin-1-yl)-[3-(dimethylamino)phenyl]methanone).” left out, “B-actin was used as loading control after. The p-p65 signal was first normalized to β-actin loading control per sample, then each value to DMSO-treated unstimulated to evaluate relative activation of NF-κB. Ns: not significant; ***: p<0.001.” left out
NF-κB was stimulated by DNA damage through either 20 Gy irradiation (IR) and analyzed after 90 minutes or by 10 ng/ml TNFα and analyzed after 20 minutes unless otherwise noted. […]
Cells were collected by scraping and lysed in Baeuerle lysis buffer supplemented with Protease (Thermo Fisher Scientific, 78429) and Phosphatase (Thermo Fisher Scientific, 78420) inhibitors after the appropriate treatment and time point. Proteins were quantified by Bradford assay (Bio-Rad, 5000006) and 20-50 µg of extracted proteins were loaded on 4-20% Protein Gel (Bio-Rad, 4568096) and then transferred onto a PVDF membrane (Bio-Rad, 1620177) using Tris-Glycine buffer with 20% of methanol. […]

[3] = test system: Akt phosphorylation (S473); test: Western blot of Akt phosphorylation (S473) in U2-OS cells; conditions: 1-hour pre-treatment
Procedure: Fig.2: MW01 and MW05 are potent and selective kinase inhibitors. […] Heatmap indicates lower IC50. […] (C) Western blot analysis of NF-κB p65 phosphorylation (S536) and Akt phosphorylation (S473) following 1-hour pre-treatment with DMSO, MW01 (10 µM), MW05 (10µM), PI-103 (1 µM), NU7441 (1 µM), or MU1210 (1 µM) in unstimulated, after 90 min irradiation (IR, 20 Gy), or after 20 min TNFα (10 ng/ml) conditions in U2-OS cells. (D) mRNA expression analysis of CLK2 (top), 48 hours after transfection with siNC, CLK2 si1, or CLK2 si2. mRNA expression analysis of NFKBIA (bottom), 48 hours after transfection with siNC, CLK2 si1, orCLK2 si2. Values are normalized to unstimulated siNC expressing cells. Statistical comparison was made between experimental conditions and respective paired siNC expressing controls. ns: not significant; **, ***, ****: p<0.01, p<0.001, p<0.000. (E) Western blot analysis of U2-OS cells after transfection with siNC or CLK2 si2 unstimulated, after irradiation (IR), or after TNFα treatment. Vinculin used as loading control. (F) IC50 (nM) of all CLK isoforms for MW01 and MW05. (G) Quantification from (E) with CLK2 knockdown and p-p65 quantification (top left and top right, respectively) and CLK4 knockdown and p-p65 (bottom left and bottom right, respectively. ns: not significant; **, ***, ****: p<0.01, p<0.001, p<0.0001.
as §2, with “Immunodetection was obtained using primary and secondary antibodies reported in Key Resources Table.” left out, “(Bio-Rad). […]” for “(Bio-Rad).”

Structure (SMILES)	phosphorylation of p65 at serine 536 after DNA damage [1]	phosphorylation of p65 at serine 536, TNFα-stimulated [2]	reduction of p-Akt [3]
Cn1cc(-c2ccc3occ(-c4ccccc4-c4ccccc4)c3n2)cn1 [MU140, reference compound]	not	–	–
Cn1cc(-c2ccc3occ(-c4cccc(-c5ccncc5)c4)c3n2)cn1 [MU-1210, reference compound]	reduction in p65 phosphorylation	–	–
O=c1cc(N2CCOCC2)oc2c(-c3cccc4c3sc3ccccc34)cccc12 [NU-7441, reference compound]	did not reduce p-p65	did not reduce p-p65	–
Oc1cccc(-c2nc(N3CCOCC3)c3oc4ncccc4c3n2)c1 [PI-103, reference compound]	–	–	complete reduction
